Here are results for 28 compounds from ChEMBL document CHEMBL2429823, “Synthesis and biological evaluation of novel 3,4-diaryl lactam derivatives as triple reuptake inhibitors” (Bioorg Med Chem Lett, 2013).

Usually inhibition stands for the relative decrease from the control value, in per cent. The term IC50 denotes the concentration that gives 50% inhibition. A low value points to greater potency.

Assay [1] deals with T1, Sodium-dependent dopamine transporter (Homo sapiens, UniProt Q01959). The assay is described as follows: Displacement of [3H]Win35428 from human recombinant DAT over-expressed in CHOK1 cells at 10 uM. In kind it is cell-based. The settings on record: CHO-K1. Background: Displacement assays read how much labelled ligand stays bound in the presence of the test substance.
T1 sequence (Q01959 whole entry): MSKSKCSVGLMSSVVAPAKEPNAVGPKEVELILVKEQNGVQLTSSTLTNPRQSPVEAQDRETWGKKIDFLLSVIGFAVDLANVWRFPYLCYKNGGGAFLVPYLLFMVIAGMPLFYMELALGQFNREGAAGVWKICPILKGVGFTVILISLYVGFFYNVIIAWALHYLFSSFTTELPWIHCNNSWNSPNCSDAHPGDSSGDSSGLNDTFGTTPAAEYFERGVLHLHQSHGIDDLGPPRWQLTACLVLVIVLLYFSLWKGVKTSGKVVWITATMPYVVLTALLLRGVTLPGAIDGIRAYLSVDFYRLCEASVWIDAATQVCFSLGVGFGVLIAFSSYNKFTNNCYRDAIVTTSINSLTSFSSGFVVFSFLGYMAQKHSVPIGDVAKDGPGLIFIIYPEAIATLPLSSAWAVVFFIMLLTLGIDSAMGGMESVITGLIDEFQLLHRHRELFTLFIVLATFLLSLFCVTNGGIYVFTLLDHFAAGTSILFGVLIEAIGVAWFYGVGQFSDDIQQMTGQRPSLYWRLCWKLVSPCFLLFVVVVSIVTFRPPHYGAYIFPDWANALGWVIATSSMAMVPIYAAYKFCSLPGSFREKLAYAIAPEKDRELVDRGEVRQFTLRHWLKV
In assay [2] the target is T2, Sodium-dependent noradrenaline transporter (Homo sapiens, UniProt P23975). Description: Displacement of [3H]Nisoxetine from human recombinant NET over-expressed in dog MDCK cells at 10 uM. Format: cell-based.
T2 sequence (P23975 whole entry): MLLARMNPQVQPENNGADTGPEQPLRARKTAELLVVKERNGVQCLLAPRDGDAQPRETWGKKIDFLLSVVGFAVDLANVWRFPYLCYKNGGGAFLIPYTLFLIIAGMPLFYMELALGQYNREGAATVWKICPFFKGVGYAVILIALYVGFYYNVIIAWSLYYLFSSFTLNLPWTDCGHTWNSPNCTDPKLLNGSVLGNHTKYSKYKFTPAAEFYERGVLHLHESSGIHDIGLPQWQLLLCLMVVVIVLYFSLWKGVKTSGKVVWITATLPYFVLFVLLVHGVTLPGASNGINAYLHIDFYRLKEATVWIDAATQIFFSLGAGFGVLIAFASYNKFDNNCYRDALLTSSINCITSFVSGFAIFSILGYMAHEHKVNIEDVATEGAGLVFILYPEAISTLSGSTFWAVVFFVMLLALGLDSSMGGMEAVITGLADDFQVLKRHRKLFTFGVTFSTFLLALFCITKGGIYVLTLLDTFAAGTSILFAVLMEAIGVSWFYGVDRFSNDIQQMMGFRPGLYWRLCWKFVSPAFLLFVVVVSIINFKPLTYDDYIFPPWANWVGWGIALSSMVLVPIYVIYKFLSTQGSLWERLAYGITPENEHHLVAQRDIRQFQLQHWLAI
The target in assay [3] is T3, Sodium-dependent serotonin transporter (Homo sapiens, UniProt P31645). The assay is described as follows: Displacement of [3H]imipramin from human recombinant SERT over-expressed in HEK293 cells at 10 uM. Format: cell-based.
Target sequence in this assay (P31645 whole entry, looked up): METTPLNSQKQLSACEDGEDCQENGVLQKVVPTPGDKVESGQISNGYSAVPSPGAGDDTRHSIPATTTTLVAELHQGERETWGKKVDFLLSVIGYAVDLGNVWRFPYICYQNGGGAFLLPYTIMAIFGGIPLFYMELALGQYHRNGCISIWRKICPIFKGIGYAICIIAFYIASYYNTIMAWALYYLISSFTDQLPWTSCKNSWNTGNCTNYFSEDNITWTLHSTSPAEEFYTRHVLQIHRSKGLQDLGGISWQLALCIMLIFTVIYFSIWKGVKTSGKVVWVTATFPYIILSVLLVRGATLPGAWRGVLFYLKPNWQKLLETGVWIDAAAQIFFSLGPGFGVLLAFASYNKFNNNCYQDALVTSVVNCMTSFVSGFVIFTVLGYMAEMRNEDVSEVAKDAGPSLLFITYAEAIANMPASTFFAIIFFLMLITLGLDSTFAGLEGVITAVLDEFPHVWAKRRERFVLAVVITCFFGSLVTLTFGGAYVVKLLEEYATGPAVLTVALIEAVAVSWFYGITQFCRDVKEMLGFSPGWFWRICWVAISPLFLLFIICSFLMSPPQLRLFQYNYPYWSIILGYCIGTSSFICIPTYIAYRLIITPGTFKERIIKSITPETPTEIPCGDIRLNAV
Assay [4] has as its target T3, Sodium-dependent serotonin transporter. To be noted: HEK293, at 10 µM.
Target sequence in this assay (P31645 whole entry, looked up): as above
Description: Inhibition of human SERT-mediated serotonin uptake expressed in HEK293 cells at 10 uM after 15 mins by fluorescence plate reader analysis
In assay [5] the target is T2, Sodium-dependent noradrenaline transporter. Description: biochemical.
Assay [6] concerns the target T1, Sodium-dependent dopamine transporter. Description: biochemical.
The target of assay [7] is T3, Sodium-dependent serotonin transporter. Description: biochemical. In kind it is cell-based, HEK293.
Target sequence in this assay (P31645 whole entry): as the sequence (P31645 whole entry, looked up) above

As for `O=C1NCC(c2ccccc2Cl)C1c1ccc(Cl)cc1` (configuration not stated), the inhibition worked out at 51% in assay [1], 60% in assay [2], 26% in assay [3] and 8.5% in assay [4]. It took 7620 nM to reach half-maximal inhibition in assay [5] (IC50).

For `CN(C)CCCN1c2ccccc2CCc2ccc(Cl)cc21` [CLOMIPRAMINE], in assay [6], the IC50 amounted to 2780 nM. That is a single-digit micromolar value.

In turn, `CNCCC(Oc1ccccc1OC)c1ccccc1` (configuration not stated) displayed an inhibition in assay [4] of 54%.

In the case of `O=C1NCC(c2cccc(Cl)c2)C1c1cccc(Cl)c1` (configuration not stated), the inhibition in assay [1] is 98%; in assay [2], 59%; in assay [3], 26%; in assay [4], 14.3%. The compound further registered an IC50 in assay [6] of 38.7 nM.

With `O=C1NCC(c2ccc(Cl)c(Cl)c2)C1c1ccccc1Cl` (configuration not stated), the inhibition in assay [1] is 100%; in assay [2], 99%; in assay [3] it was 52%; in assay [4] it was 21.9%. In addition, the values for the IC50 in assay [6] and in assay [5] were 8.14 nM and 510 nM, respectively.

Consider `O=C1NCC(c2cccc(Cl)c2)C1c1ccc(Cl)cc1` (configuration not stated), for which the inhibition in assay [1] turned out to be 95%; in assay [2] it was 87%; in assay [3], 49%; in assay [4], 38.4%. Moreover, the IC50 in assay [6] is 33.1 nM; in assay [5], 1660 nM.

As for `Clc1ccc2c(c1Cl)CC[C@H]1NC[C@H](c3ccccc3)[C@@H]21`, the figures for the inhibition in assay [1], in assay [2] and in assay [3] were 5%, 10% and 9%, respectively.

In the case of `O=C1NCC(c2ccccc2Cl)C1c1ccccc1Cl` (configuration not stated), the inhibition in assay [1] turned out to be 45%; in assay [2] it was 33%; in assay [3], 20%; in assay [4], 6.9%.

With `O=C1NCC(c2cccc(Cl)c2)C1c1ccc(Cl)c(Cl)c1` (configuration not stated), the inhibition in assay [1] amounted to 99%; in assay [2], 78%; in assay [3], 71%; in assay [4], 40.9%. Besides, the IC50 in assay [6] turned out to be 172 nM; in assay [5], 2740 nM; in assay [7], 3760 nM.

As to `Clc1ccc2c(c1)CC[C@H]1NC[C@H](c3ccccc3)[C@@H]21`, the inhibition is 5% in assay [1], 10% in assay [2] and 9% in assay [3].

Turning to `O=C1NCC(c2cccc(Cl)c2)C1c1ccccc1` (configuration not stated), the inhibition came to 98% in assay [1], 26% in assay [2], 55% in assay [3] and 24.3% in assay [4]. The same compound showed an IC50 in assay [6] of 22.7 nM.

For the compound `Clc1cccc2c1CC[C@H]1NC[C@H](c3ccccc3)[C@@H]21`, the results for the inhibition in assay [1], in assay [2] and in assay [3] were 5%, 10% and 9%, respectively.

Consider `O=C1NCC(c2ccccc2Cl)C1c1ccccc1` (configuration not stated), for which the inhibition amounted to 70% in assay [1], 5% in assay [2], 23% in assay [3] and 19.3% in assay [4]. This compound also gave an IC50 in assay [6] of 2140 nM.

Turning to `O=C1NCC(c2ccc(Cl)cc2)C1c1ccccc1Cl` (configuration not stated), the inhibition in assay [1] was found to be 97%; in assay [2] it was 74%; in assay [3], 49%; in assay [4] it was 23.4%. Also, the IC50 in assay [6] came out at 81.5 nM; in assay [5], 3570 nM.

On to `O=C1NCC(c2ccc(Cl)cc2)C1c1ccc(Cl)c(Cl)c1` (configuration not stated), for which the inhibition in assay [1] was found to be 96%; in assay [2], 92%; in assay [3], 57%; in assay [4], 22.7%. For the same compound, the concentration for half-maximal inhibition (IC50) is 281 nM in assay [6] and 1900 nM in assay [5].

As to `O=C1NCC(c2ccc(Cl)c(Cl)c2)C1c1ccc(Cl)c(Cl)c1` (configuration not stated), the inhibition in assay [1] stood at 85%; in assay [2] it was 90%; in assay [3], 42%; in assay [4], 8.8%. For the same compound, the results for the half-inhibitory concentration (IC50) in assay [6] and in assay [5] were 285 nM and 990 nM, respectively.

Consider `O=C1NCC(c2ccc(Cl)c(Cl)c2)C1c1ccc(Cl)cc1` (configuration not stated), for which the inhibition in assay [1] turned out to be 76%; in assay [2], 83%; in assay [3] it was 90%; in assay [4], 50.4%. The IC50 in assay [6] is 99.6 nM; in assay [5], 2030 nM; in assay [7], 85.6 nM.

Take `O=C1NCC(c2ccc(Cl)cc2)C1c1ccc2ccccc2c1` (configuration not stated): the inhibition in assay [1] was 97%; in assay [2], 91%; in assay [3], 79%; in assay [4], 26.3%. Besides, the half-inhibitory concentration (IC50) in assay [6] stood at 160 nM; in assay [5], 1190 nM; in assay [7] it was 6450 nM.

For the compound `O=C1NCC(c2ccc(Cl)cc2)C1c1ccc(Cl)cc1` (configuration not stated), the inhibition amounted to 99% in assay [1], 75% in assay [2], 84% in assay [3] and 58.1% in assay [4]. Further, the IC50 in assay [6] amounted to 179 nM; in assay [5] it was 5180 nM; in assay [7], 99.2 nM.

`O=C1NCC(c2ccc(Cl)c(Cl)c2)C1c1ccc2ccccc2c1` (configuration not stated): the inhibition in assay [1] amounted to 86%; in assay [2], 94%; in assay [3] it was 69%; in assay [4], 4.4%. Besides, the results for the IC50 in assay [6], in assay [5] and in assay [7] were 121 nM, 483 nM and 965 nM, respectively.

`Clc1ccc2c(c1)[C@@H]1[C@@H](c3ccccc3)CN[C@@H]1CC2`: the inhibition in assay [1] turned out to be 5%; in assay [2], 10%; in assay [3], 9%.

In the case of `O=C1NCC(c2ccc(Cl)c(Cl)c2)C1c1cccc(Cl)c1` (configuration not stated), the inhibition in assay [1] came out at 87%; in assay [2] it was 93%; in assay [3] it was 57%; in assay [4] it was 20.4%. Besides, the IC50 in assay [6] amounted to 41.7 nM; in assay [5] it was 384 nM.

For `O=C1NCC(c2cccc(Cl)c2)C1c1ccccc1Cl` (configuration not stated), the inhibition in assay [1] was determined as 96%; in assay [2] it was 41%; in assay [3] it was 39%; in assay [4] it was 20.2%. For the same compound, half-maximal inhibition in assay [6] (IC50) required 17.3 nM.

As to `O=C1NCC(c2ccc(Cl)c(Cl)c2)C1c1ccccc1` (configuration not stated), the inhibition came out at 83% in assay [1], 87% in assay [2], 49% in assay [3] and 29.4% in assay [4]. For the same compound, the 50% inhibitory concentration (IC50) in assay [6] stood at 36.6 nM; in assay [5] it was 866 nM.

As for `O=C1NCC(c2ccccc2Cl)C1c1ccc2ccccc2c1` (configuration not stated), the inhibition amounted to 23% in assay [1], 89% in assay [2], 56% in assay [3] and 4.5% in assay [4]. For the same compound, in assay [5], the IC50 came out at 1380 nM.

As to `O=C1NCC(c2ccc(Cl)cc2)C1c1cccc(Cl)c1` (configuration not stated), the inhibition in assay [1] came to 99%; in assay [2], 72%; in assay [3], 22%; in assay [4], 12.2%. For the same compound, the IC50 in assay [6] was 36.3 nM; in assay [5], 3820 nM.

As to `O=C1NCC(c2ccccc2Cl)C1c1ccc(Cl)c(Cl)c1` (configuration not stated), the inhibition in assay [1] was 87%; in assay [2], 90%; in assay [3], 26%; in assay [4] it was 6.2%. Besides, the results for the concentration for half-maximal inhibition (IC50) in assay [6] and in assay [5] were 1730 nM and 2520 nM, respectively.

Take `O=C1NCC(c2ccc(Cl)cc2)C1c1ccccc1` (configuration not stated): the inhibition in assay [1] was 99%; in assay [2], 50%; in assay [3], 20%; in assay [4], 30.8%. Further, the 50% inhibitory concentration (IC50) in assay [6] came out at 32.7 nM.
